One experiment deals with T1, p75^NTR (Rattus norvegicus, UniProt P07174).
T1 construct: expressed in transfected cells; host or cells: HEK293
T1 sequence (P07174 30-425): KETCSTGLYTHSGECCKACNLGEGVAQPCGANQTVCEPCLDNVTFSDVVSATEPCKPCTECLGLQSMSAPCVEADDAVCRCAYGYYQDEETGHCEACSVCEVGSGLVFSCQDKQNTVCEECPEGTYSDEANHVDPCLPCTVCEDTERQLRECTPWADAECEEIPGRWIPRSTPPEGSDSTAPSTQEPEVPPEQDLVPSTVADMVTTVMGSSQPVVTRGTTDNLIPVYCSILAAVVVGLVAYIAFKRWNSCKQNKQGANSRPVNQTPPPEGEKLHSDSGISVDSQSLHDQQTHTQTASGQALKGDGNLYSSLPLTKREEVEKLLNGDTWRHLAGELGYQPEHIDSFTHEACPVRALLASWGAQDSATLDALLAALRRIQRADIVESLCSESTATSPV
As to the kind of experiment: Heterologous [3H]-DHEA displacement, HEK293^p75NTR cell membranes. The note with it: for displacement of [3H]-DHEA binding (in words): competitor up to 1000 nM. It counts as binding.

For experiment [1], the target named is T2, TrkA (Rattus norvegicus, UniProt P35739). The experiment can be described thus: TrkA phosphorylation in HEK293^TrkA transfectants (anti-tyrosine IP, Western blot). In kind it is cell-based. On the set-up: expressed in transfected cells; host or cells: HEK293. The note with it: 10 min (and 20 min), steroids 100 nM, NGF 100 ng/ml. As to the method: HEK293 cells were transfected with the appropriate plasmids (TrkA, p75^NTR, RIP2, TRAF-6, and RhoGDI) by using Lipofectamine 2000 (Invitrogen). Cells were harvested 48 h after transfection and suspended in lysis buffer (50 mM Tris-HCl, 0.15 M NaCl, 1% Triton-X100, pH 7.4) supplemented with protease inhibitors. Lysates were precleared for 1 h with Protein A-Sepharose beads (Amersham) and immunoprecipitated with the appropriate antibody (pTyr, Flag, or c-myc) overnight at 4°C. Protein A Sepharose beads were incubated with the lysates for 4 h at 4°C with gentle shaking. […] Beads were collected by centrifugation, washed four times with lysis buffer, and resuspended in SDS loading buffer. Proteins were separated by SDS/PAGE, followed by immunoblotting with specific antibodies.
PC12 or HEK293 cells lysates were electrophoresed through a 12% SDS-polyacrylamide gel, and then proteins were transferred to nitrocellulose membranes, which were processed according to standard Western blotting procedures, as previously described. To detect protein levels, membranes were incubated with the appropriate antibodies: Bcl-2 (dilution 1∶500), phospho TrkA (dilution 1∶500), total TrkA (dilution1∶500), p75^NTR (dilution 1∶500), phospho Shc (dilution 1∶1000), total Shc (dilution 1∶1000), phospho Akt (dilution 1∶500), total Akt (dilution 1∶500), phospho ERK1/2 (dilution 1∶500), and total ERK1/2 (dilution 1∶500). Proteins were visualized using the ECL Western blotting kit (ECL Amersham Biosciences, UK), and blots were exposed to Kodak X-Omat AR films. A PC-based Image Analysis program was used to quantify the intensity of each band (Image Analysis, Inc., Ontario, Canada).
To normalize for protein content the blots were stripped and stained with GAPDH antibody (dilution 1∶1000); the concentration of each target protein was normalized versus GAPDH. Where phosphorylation of TrkA or kinases was measured, membranes were first probed for the phosphorylated form of the protein, then stripped, and probed for the total protein.

Experiment [2] deals with T2, TrkA. As to the kind of experiment: Heterologous [3H]-DHEA displacement, HEK293^TrkA cell membranes. In kind it is binding. On the set-up: expressed in transfected cells; host or cells: HEK293.
In a further experiment the target is TrkA receptor. Particulars: extracellular and cytoplasmic juxtamembrane domains of TrkA; read-out: Kd of binding to TrkA receptor; cited from earlier work.
For another experiment, the target named is p75NTR (Homo sapiens) (UniProt P08138). The note with it: cited from earlier work.
Experiment [3] has as its target T3, rat TrkA receptor expressed in HEK293 cells (HEK293^TrkA) (rat, UniProt P35739 33-799).
T3 construct: TrkA (NGF receptor tyrosine kinase), rat, expressed from the pHA vector backbone; source: HEK293, transfected (Lipofectamine 2000); crude membranes and whole cells
The experiment can be described thus: radioligand binding; homologous [125I]-NGF displacement with unlabeled NGF on membranes isolated from HEK293^TrkA and HEK293^p75NTR transfectants. Particulars: one partner purified.

For experiment [4], the target named is T4, rat p75^NTR receptor expressed in HEK293 cells (HEK293^p75NTR) (rat, UniProt P07174 30-425).
T4 construct: also called p75 neurotrophin receptor; source: HEK293, transfected (Lipofectamine 2000); crude membranes, whole cells and lysate
T4 sequence (looked up): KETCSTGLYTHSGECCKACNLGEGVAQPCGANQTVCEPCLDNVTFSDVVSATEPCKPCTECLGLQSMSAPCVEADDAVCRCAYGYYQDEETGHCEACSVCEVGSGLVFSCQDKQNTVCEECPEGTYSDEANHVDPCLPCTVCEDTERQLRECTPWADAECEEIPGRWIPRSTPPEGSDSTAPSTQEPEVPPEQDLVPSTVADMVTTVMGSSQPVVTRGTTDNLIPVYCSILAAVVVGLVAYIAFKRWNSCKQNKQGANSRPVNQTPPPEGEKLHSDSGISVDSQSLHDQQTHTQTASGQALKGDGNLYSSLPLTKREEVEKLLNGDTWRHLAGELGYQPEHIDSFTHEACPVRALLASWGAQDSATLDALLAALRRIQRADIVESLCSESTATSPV
The experiment is described as above. Particulars: one partner purified.

Experiment [5] concerns the target T3, rat TrkA receptor expressed in HEK293 …. As to the kind of experiment: radioligand binding; heterologous displacement of 1 nM [3H]-DHEA (a steroid) by unlabeled NGF (10^-12-10^-6 M) on membranes (2 mg/ml) of HEK293^TrkA and HEK293^p75NTR cells, PBS pH 7.4 with protease inhibitors, collected on GF/B filters. Particulars: one partner purified.
Experiment [6] concerns the target T4, rat p75^NTR receptor expressed in …. Described as above. The note with it: one partner purified.

Counter-ions that a name gives are not always drawn. Like-named read-outs stand apart in the source and are kept apart here.

Consider eight molecules from article PMC3082517 (PLoS Biology, 2011).

As a reminder, the IC50 is the concentration needed to halve the response being measured. For orientation: Kd means the constant that tells how readily two partners part at equilibrium.

T2 sequence (P35739 33-799): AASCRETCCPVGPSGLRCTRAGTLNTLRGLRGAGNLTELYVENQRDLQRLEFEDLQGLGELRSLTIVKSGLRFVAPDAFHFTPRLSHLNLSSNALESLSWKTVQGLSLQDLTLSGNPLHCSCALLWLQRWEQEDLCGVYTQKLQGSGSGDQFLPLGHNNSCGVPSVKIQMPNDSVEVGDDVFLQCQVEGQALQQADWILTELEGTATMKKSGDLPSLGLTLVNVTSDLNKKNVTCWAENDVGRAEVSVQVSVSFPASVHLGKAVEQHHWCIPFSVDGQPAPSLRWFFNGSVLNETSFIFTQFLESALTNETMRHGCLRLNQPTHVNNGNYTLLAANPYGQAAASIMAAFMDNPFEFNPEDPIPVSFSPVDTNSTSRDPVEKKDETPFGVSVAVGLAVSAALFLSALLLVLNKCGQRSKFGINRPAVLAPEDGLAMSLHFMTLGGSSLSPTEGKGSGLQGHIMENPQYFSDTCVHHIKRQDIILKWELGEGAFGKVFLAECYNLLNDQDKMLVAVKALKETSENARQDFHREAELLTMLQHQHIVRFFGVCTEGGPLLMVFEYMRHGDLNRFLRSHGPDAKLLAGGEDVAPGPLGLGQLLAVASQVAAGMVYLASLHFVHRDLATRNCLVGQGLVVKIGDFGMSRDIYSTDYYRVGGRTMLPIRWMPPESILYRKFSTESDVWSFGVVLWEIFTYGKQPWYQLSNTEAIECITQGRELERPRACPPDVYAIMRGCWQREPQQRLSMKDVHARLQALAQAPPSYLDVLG
T3 sequence (P35739 33-799): as above
Sequence of p75NTR (Homo sapiens) (P08138 29-250): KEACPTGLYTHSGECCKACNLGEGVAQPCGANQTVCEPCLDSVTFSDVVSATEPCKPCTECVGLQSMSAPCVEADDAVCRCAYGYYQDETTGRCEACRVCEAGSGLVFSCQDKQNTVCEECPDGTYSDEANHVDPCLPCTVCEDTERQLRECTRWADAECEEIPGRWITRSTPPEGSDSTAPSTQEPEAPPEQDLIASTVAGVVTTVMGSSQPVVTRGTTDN

Regarding `C[C@]12CC[C@H](OS(=O)(=O)O)CC1=CC[C@@H]1[C@@H]2CC[C@]2(C)C(=O)CC[C@@H]12` [DHEAS, dehydroepiandrosterone sulfate], the IC50 on p75^NTR (HEK293^p75NTR membranes, 1 nM [3H]-DHEA, read-out: IC50 of [3H]-DHEA displacement) worked out at 8.1 ± 1.2 nM; on TrkA [2] (HEK293^TrkA membranes, 1 nM [3H]-DHEA, read-out: IC50 of [3H]-DHEA displacement), 6.1 ± 1.1 nM. In addition, the “phosphorylation of TrkA” value on TrkA [1] is listed as “rapidly induced”.

On to `C[C@]12CC[C@@H]3c4ccc(O)cc4CC[C@H]3[C@@H]1CC[C@@H]2O` [Estradiol], for which the “displacement of [3H]-DHEA binding (in words)” value at p75^NTR (HEK293^p75NTR membranes) was “failed to displace”; at TrkA [2] (HEK293^TrkA membranes, competitor 0.1 to 1000 nM) it was “failed to displace”.

Regarding `CN(C)CCC=C1c2ccccc2CCc2ccccc21` [amitriptyline], on TrkA receptor, the Kd is 3000 nM.

Regarding `C[C@@H]1C[C@H]2[C@@H]3CCC4=CC(=O)C=C[C@]4(C)[C@@]3(F)[C@@H](O)C[C@]2(C)[C@@]1(O)C(=O)CO` [dexamethasone], the “displacement of [3H]-DHEA binding (in words)” value at p75^NTR (HEK293^p75NTR membranes) was “ineffective”.

As to `CC(C)=CCC[C@]1(C)C=Cc2c(O)c3c(c(CC=C(C)C)c2O1)O[C@]12C(=C[C@@H]4CC1C(C)(C)O[C@@]2(C/C=C(/C)C(N)=O)C4=O)C3=O` [gambogic amide], on TrkA receptor, the equilibrium dissociation constant (Kd) is 75 nM.

`C[C@]12CC[C@H]3[C@@H](CCC4=CC(=O)CC[C@@]43C)[C@@H]1CC[C@@H]2O` [testosterone]: the values for the IC50 on p75^NTR and at TrkA [2] were 7.4 ± 3.2 nM and 5.3 ± 2.1 nM, respectively. Also, at TrkA [1], the “phosphorylation of TrkA” value is listed as “unable to increase”.

Take NGF (from UniProt P01138): the equilibrium dissociation constant (Kd) with p75NTR (Homo sapiens) was 1 nM.

B1: nerve growth factor (NGF), unlabeled (ligand, UniProt P01139 122-241, looked up)
chain: SSTHPVFHMGEFSVCDSVSVWVGDKTTATDIKGKEVTVLAEVNINNSVFRQYFFETKCRASNPVESGCRGIDSKHWNSYCTTTHTFVKALTTDEKQAAWRFIRIDTACVCVLSRKATRRG
notes: nerve growth factor (NGF); The species of the NGF is told nowhere; also called unlabeled NGF
In the case of B1, the IC50 came out at 0.3 ± 0.09 nM in [3], 1.7 ± 0.38 nM in experiment [4], 0.8 ± 0.2 nM in experiment [5] and 1.19 ± 0.45 nM in experiment [6].
